Key:
[1] = Fecal recovery of orally administered compounds; format: in vivo, Sprague-Dawley rats; details: Structure (I) examples, Table 16; rat, oral gavage, feces collected until 48 hr after dosing
Outline: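 After oral dosing, feces collected in metabolic cages up to 48 h, lyophilized and ground. Duplicate weighed portions per animal extracted with organic solvent under non-compound-optimized conditions, so recovery may be a minimal estimate.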

human NaP2b (SLC34A2) = molecular target: T1, human NaP2b (SLC34A2) (Homo sapiens, UniProt O95436); test: Inhibition of NaP2b-mediated Pi (33P) uptake in transfected HEK293 cells, human NaP2b; format: cell-based; details: read-out: pIC50 range for human NaP2b (converted)
T1 construct: host or cells: HEK293
T1 sequence (O95436 1-690): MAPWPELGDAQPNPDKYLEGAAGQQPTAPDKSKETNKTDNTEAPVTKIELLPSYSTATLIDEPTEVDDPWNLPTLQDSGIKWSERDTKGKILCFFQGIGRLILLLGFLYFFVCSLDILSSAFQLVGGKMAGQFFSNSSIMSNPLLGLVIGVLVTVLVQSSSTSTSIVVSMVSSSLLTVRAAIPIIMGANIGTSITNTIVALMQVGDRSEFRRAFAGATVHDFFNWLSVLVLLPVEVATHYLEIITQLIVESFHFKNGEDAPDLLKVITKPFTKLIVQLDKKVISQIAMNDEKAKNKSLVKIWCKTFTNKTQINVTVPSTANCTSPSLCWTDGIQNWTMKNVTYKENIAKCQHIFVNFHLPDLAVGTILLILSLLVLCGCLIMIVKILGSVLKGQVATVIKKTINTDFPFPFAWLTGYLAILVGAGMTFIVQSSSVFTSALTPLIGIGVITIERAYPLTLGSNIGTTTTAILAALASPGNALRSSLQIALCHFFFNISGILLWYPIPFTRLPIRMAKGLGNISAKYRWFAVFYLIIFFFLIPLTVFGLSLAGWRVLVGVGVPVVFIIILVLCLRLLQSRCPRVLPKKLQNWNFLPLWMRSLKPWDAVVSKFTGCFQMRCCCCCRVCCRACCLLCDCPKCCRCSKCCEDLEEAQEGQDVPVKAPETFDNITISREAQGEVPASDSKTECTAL
Outline: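 Uptake of 33P-phosphate (100 uM KH2PO4 carrier, sodium vs choline buffer, pH 7.4) measured after 3-30 min at room temperature, with test compound at twelve concentrations from 0.1 nM to 30 uM in duplicate. Cells were HEK293 transfected with mutated human NaP2b (Thr insertion after 37, N39D) and treated with a PiT-silencing agent. pIC50 values from scintillation counts.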

[2] = Stability of compounds in simulated gastric fluid (SGF); format: in vitro ADME; details: simulated gastric fluid (3 mg/mL pepsin), incubation time 6 hr, relative to t=0
Outline: (§1)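 Compounds at […] were incubated 3 or 6 hr in USP simulated gastric fluid with 3 mg/mL pepsin or simulated intestinal fluid with 3 mg/mL pancreatin. Remaining compound was quantified by HPLC-UV or HPLC-MS peak area % and reported as percent of the t=0 level in the same medium.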

[3] = Stability of compounds in simulated intestinal fluid (SIF); format: in vitro ADME; details: simulated intestinal fluid (3 mg/mL pancreatin), incubation time 6 hr, relative to t=0
Outline: as §1

Row | Structure (SMILES) | % recovered in feces [1] | IC50 (human NaP2b (SLC34A2)) | % remaining, SGF [2] | % remaining, SIF [3]
1 | CN(CCN1CCOCC1)C(=O)c1cccc(C(=O)Nc2ccc(N3CCCCC3)cc2-c2cc(C(=O)NCc3cccc(C(F)(F)F)c3)ccn2)c1 [Example 80, N1-Methyl-N1-(2-morpholinoethyl)-N3-(4-(piperidin-1-yl)-2-(4-((3-(trifluoromethyl)benzyl)carbamoyl)pyridin-2-yl)phenyl)isophthalamide] | 20-80% | 1000 to 7940 nM |  | 
2 | O=C(O)CCOCCOCCOCCOCCSCc1cccc(C(=O)Nc2ccc(N3CCCCC3)cc2-c2cc(C(=O)N[C@H]3CCCc4ccccc43)ccn2)c1 [Example 142, 1-(3-{[4-(piperidin-1-yl)-2-(4-{[(1S)-1,2,3,4-tetrahydronaphthalen-1-yl]carbamoyl}pyridin-2-yl)phenyl]carbamoyl}phenyl)-5,8,11,14-tetraoxa-2-thiaheptadecan-17-oic acid] |  | 1000 to 7940 nM | >80% | >80%
3 | CCN(CC)c1ccc(NC(=O)c2cccc(CSc3cccc(CC(=O)N(C)CCOCCOCCOCCC(=O)O)c3)c2)c(-c2cc(C(=O)NCc3cccc(C(F)(F)F)c3)ccn2)c1 [Example 144, 3-(2-(2-(2-(2-(3-(3-(4-(diethylamino)-2-(4-(3-(trifluoromethyl)benzylcarbamoyl)pyridin-2-yl)phenylcarbamoyl)benzylthio)phenyl)-N-methylacetamido)ethoxy)ethoxy)ethoxy)propanoic acid] |  | < 1000 nM | >80% | >80%
4 | CCN(CC)c1ccc(NC(=O)c2cccc(C(=O)N(C)CCOCCOCCOCCC(=O)O)c2)c(-c2cc(C(=O)NCc3cccc(C(F)(F)F)c3)ccn2)c1 [Example 188, 1-(3-((4-(diethylamino)-2-(4-((3-(trifluoromethyl)benzyl)carbamoyl)pyridin-2-yl)phenyl)carbamoyl)phenyl)-2-methyl-1-oxo-5,8,11-trioxa-2-azatetradecan-14-oic acid] |  | 1000 to 7940 nM |  | 
5 | O=C(O)CCOCCOCCOCCOCCCc1cccc(C(=O)Nc2ccc(N3CCCCC3)cc2-c2cc(C(=O)N[C@H]3CCCc4ccccc43)ccn2)c1 [Example 252, 3-(2-(2-(2-(3-(3-((2-(4-(((S)-1,2,3,4-tetrahydronaphthalen-1-yl)carbamoyl)pyridin-2-yl)-4-(piperidin-1-yl)phenyl)carbamoyl)phenyl)propoxy)ethoxy)ethoxy)ethoxy)propanoic acid] |  | < 1000 nM | >80% | >80%
6 | CCN(CC)c1ccc(NC(=O)c2cccc(CCCOCCOCCOCCOCCNS(=O)(=O)c3ccc(C(=O)N(CCOC)CCOCCOCCOCCOCCOCCOCCOC)cc3)c2)c(-c2cc(C(=O)NCc3cccc(C(F)(F)F)c3)ccn2)c1 [Example 272, 2-(2-(3-(1-(4-(2,5,8,11,14,17,20-heptaoxadocosan-22-yl(2-methoxyethyl)carbamoyl)phenylsulfonamido)-3,6,9,12-tetraoxapentadecan-15-yl)benzamido)-5-(diethylamino)phenyl)-N-(3-(trifluoromethyl)benzyl)isonicotinamide] | >80% | 1000 to 7940 nM |  | 
7 | CCN(CC)c1ccc(NC(=O)c2cccc(CCCOCCOCCOCCOCCOCCOCCOCCOCCOCCC(=O)O)c2)c(-c2cc(C(=O)NCc3cccc(C(F)(F)F)c3)ccn2)c1 [Example 298, 31-(3-(4-(diethylamino)-2-(4-(3-(trifluoromethyl)benzylcarbamoyl)pyridin-2-yl)phenylcarbamoyl)phenyl)-4,7,10,13,16,19,22,25,28-nonaoxahentriacontan-1-oic acid] | >80% | 1000 to 7940 nM |  | 
8 | CCN(CC)c1ccc(NC(=O)c2cccc(CCCOCCOCCOCCOCCOCCOCCC(=O)O)c2)c(-c2cc(C(=O)NCc3cccc(C(F)(F)F)c3)ccn2)c1 [Example 299, 22-(3-(4-(diethylamino)-2-(4-(3-(trifluoromethyl)benzylcarbamoyl)pyridin-2-yl)phenylcarbamoyl)phenyl)-4,7,10,13,16,19-hexaoxadocosan-1-oic acid] | 20-80% | < 1000 nM |  | 

Source: patent US20140023611A1 (priority 2010, published 2014)
